≈ marks a conversion by molar mass, not a printed value.
Experiments:
[1] = Antioxidant activity assessed as H2O2 scavenging activity; assay type: functional; conditions: dose or concentration not given here
[2] = tested on: Staphylococcus aureus; assay: Antibacterial activity against methicillin-resistant Staphylococcus aureus; assay type: functional
[3] = tested on: Salmonella typhimurium; assay: Antibacterial activity against Salmonella typhimurium; assay type: functional, Salmonella enterica subsp. enterica serovar Typhimurium; conditions: Salmonella enterica
[4] = tested on: Escherichia coli; assay: Antibacterial activity against Escherichia coli; assay type: functional; conditions: Escherichia coli
[5] = tested on: Bacillus cereus; assay: Antibacterial activity against Bacillus cereus; assay type: functional, organism-based
[6] = Antioxidant activity assessed as DPPH radical scavenging activity; assay type: functional; conditions: dose or concentration not given here
[7] = organism: Mus musculus; assay: Antioxidant activity in Swiss albino mouse assessed as GSH level per mg tissue; assay type: functional
[8] = organism: Mus musculus; assay: Antioxidant activity in Swiss albino mouse assessed as LPO level per mg tissue; assay type: functional
[9] = tested on: Enterococcus faecalis; assay: Antibacterial activity against Enterococcus faecalis; assay type: functional
[10] = tested on: Hs-578T; assay: Cytotoxicity against human Hs578T cells assessed as cell growth inhibition after 48 hrs by SRB assay; assay type: functional, cell-based
[11] = tested on: SNB-75; assay: Cytotoxicity against human SNB75 cells assessed as cell growth inhibition after 48 hrs by SRB assay; assay type: functional, cell-based; conditions: SNB-75, 48 h
[12] = tested on: 786-0; assay: Cytotoxicity against human 786-O cells assessed as cell growth inhibition after 48 hrs by SRB assay; assay type: functional, cell-based; conditions: 786-0, 48 h
[13] = tested on: T47D; assay: Cytotoxicity against human T47D cells; assay type: functional, cell-based
[14] = tested on: MCF7; assay: Cytotoxicity against human MCF7 cells incubated for 72 hrs by WST1 dye based assay; assay type: functional, cell-based; conditions: MCF7, 72 h
[15] = tested on: C32; assay: Cytotoxicity against human C32 cells incubated for 72 hrs by WST1 dye based assay; assay type: functional, cell-based; conditions: C32, 72 h
[16] = tested on: SNB-19; assay: Cytotoxicity against human SNB19 cells incubated for 72 hrs by WST1 dye based assay; assay type: functional, cell-based; conditions: SNB-19, 72 h
[17] = tested on: HFF-1; assay: Cytotoxicity against human HFF1 cells incubated for 72 hrs by WST1 dye based assay; assay type: cell-based; conditions: HFF-1, 72 h
[18] = tested on: Staphylococcus aureus; assay: Antibacterial activity against Staphylococcus aureus; assay type: functional; conditions: Staphylococcus aureus; read-out: MIC
[19] = biological target: Cholinesterase (Equus caballus) (UniProt P81908); assay: Inhibition of horse serum BChE at 10 uM
[20] = biological target: Cholinesterase (Equus caballus, UniProt P81908); assay: Inhibition of horse serum BChE
[21] = tested on: Human immunodeficiency virus; assay: Antiviral activity against HIV infected in human MT4 cells; assay type: functional, organism-based; conditions: Human immunodeficiency virus 1, MT4
[22] = biological target: Intercellular adhesion molecule 1 (Homo sapiens, UniProt P05362); assay: Inhibition of ICAM1 (unknown origin)
[23] = tested on: Mus musculus; assay: Anti-inflammatory activity in mouse IL-1-induced paw inflammation model assessed as inhibition of neutrophil infiltration at 10 mg/kg, po; assay type: functional; conditions: Mus musculus, po
[24] = biological target: Vascular cell adhesion protein 1 (Homo sapiens, UniProt P19320); assay: Inhibition of VCAM1 (unknown origin)
[25] = Oral bioavailability in rat at 3 mg/kg; assay type: ADME, organism-based; conditions: in vivo
[26] = tested on: HOP-92; assay: Cytotoxicity against human HOP92 cells assessed as cell growth inhibition after 48 hrs by SRB assay; assay type: functional, cell-based; conditions: HOP-92, 48 h
[27] = tested on: MCF7; assay: Cytotoxicity against human MCF7 cells assessed as cell growth inhibition after 48 hrs by SRB assay; assay type: functional, cell-based; conditions: MCF7, 48 h
[28] = Inhibition of LTB4 formation in rat polymorphonuclear leukocytes preincubated for 2 mins followed by A-23187 addition after 4 mins; assay type: functional, cell-based
[29] = tested on: Rattus norvegicus; assay: Anti-asthmatic activity in rat assessed as inhibition of egg albumin-induced duration of symptoms of dyspnoea at 3 mg/kg, po administered 90 mins prior to dyspnoea induction; assay type: functional
[30] = tested on: Rattus norvegicus; assay: Anti-asthmatic activity in rat assessed as inhibition of egg albumin-induced duration of symptoms of dyspnoea at 5 mg/kg, po administered 90 mins prior to dyspnoea induction; assay type: functional
[31] = organism: Rattus norvegicus; assay: Antioxidant activity in albino rat assessed as inhibition of catalase induced H2O2 production; assay type: functional
[32] = tested on: MCF7; assay: Growth inhibition of human MCF7 cells at 10 uM; assay type: functional; conditions: read-out: GI
[33] = tested on: UO-31; assay: Growth inhibition of human UO31 cells at 10 uM; assay type: functional; conditions: read-out: GI
[34] = biological target: Lipoxygenase (Glycine max, UniProt Q39829); assay: Inhibition of soybean lipoxygenase using linoleic acid as substrate preincubated for 5 mins followed by substrate addition measuredf after 7 mins by solution A/B solution based assay
[35] = tested on: Aspergillus niger; assay: Antifungal activity against Aspergillus niger; assay type: functional
[36] = tested on: Candida albicans; assay: microbe, parasite or virus in culture
Description: Antimicrobial activity against Candida albicans

[37] = Inhibition of lipoxygenase in rat peritoneal cavity resident cells

Sequence of Cholinesterase (P81908 whole entry): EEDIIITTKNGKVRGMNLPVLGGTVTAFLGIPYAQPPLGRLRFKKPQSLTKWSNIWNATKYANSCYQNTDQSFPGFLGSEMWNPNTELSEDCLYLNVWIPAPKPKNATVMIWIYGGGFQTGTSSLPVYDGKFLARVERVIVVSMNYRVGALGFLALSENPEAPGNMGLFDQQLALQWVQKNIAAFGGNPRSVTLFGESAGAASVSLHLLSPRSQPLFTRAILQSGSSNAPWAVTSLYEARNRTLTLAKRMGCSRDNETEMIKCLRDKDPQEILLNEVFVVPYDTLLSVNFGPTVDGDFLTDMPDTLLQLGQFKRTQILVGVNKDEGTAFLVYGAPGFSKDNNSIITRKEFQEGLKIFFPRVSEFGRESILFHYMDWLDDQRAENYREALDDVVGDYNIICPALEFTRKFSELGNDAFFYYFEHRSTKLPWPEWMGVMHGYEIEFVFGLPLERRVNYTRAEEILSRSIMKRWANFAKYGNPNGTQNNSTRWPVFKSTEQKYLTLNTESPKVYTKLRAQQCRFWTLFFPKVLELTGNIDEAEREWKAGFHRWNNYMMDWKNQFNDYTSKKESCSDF
Sequence of Cholinesterase (Equus caballus) (P81908 whole entry): as above
Sequence of Vascular cell adhesion protein 1 (P19320 whole entry): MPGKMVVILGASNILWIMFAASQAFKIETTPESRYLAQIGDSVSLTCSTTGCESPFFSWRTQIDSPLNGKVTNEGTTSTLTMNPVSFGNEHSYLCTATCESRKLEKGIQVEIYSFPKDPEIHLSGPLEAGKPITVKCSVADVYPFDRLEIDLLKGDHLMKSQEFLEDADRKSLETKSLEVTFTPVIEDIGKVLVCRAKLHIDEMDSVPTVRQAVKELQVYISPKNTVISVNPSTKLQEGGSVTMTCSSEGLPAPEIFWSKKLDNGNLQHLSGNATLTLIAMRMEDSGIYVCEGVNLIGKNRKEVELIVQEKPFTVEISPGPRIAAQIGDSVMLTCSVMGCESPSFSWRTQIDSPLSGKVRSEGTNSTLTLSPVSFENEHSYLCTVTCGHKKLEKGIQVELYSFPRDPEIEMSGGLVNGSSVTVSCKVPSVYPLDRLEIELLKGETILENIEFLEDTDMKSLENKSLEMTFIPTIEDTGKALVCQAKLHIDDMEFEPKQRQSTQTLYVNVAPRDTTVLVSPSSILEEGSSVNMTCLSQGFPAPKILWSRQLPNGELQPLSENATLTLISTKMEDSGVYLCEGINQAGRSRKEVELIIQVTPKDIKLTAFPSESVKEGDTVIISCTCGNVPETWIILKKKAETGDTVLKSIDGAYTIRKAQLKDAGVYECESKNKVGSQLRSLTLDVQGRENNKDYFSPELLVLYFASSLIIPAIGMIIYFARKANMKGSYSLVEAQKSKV
Sequence of Intercellular adhesion molecule 1 (P05362 whole entry): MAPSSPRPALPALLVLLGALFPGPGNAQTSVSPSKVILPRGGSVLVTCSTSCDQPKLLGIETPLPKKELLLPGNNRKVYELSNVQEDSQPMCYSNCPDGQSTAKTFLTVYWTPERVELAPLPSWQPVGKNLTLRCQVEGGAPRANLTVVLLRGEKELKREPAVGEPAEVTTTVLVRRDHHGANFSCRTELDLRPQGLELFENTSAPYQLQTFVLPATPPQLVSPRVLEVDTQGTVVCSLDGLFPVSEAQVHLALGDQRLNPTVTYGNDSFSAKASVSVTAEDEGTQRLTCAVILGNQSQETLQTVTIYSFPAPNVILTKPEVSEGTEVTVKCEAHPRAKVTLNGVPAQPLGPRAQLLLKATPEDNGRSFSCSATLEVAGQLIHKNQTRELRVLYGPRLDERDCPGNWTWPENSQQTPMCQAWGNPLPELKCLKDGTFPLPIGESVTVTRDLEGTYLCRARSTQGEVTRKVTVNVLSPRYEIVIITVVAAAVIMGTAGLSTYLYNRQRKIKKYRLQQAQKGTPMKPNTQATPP

In the case of `O=C1C(c2ccc(Br)cc2)=C2Sc3cccnc3NC2c2ccccc21` (configuration not stated), the inhibition [1] is reported as < 100%.
`COc1ccc2c(c1)Sc1c(F)cc3c(=O)c(C(=O)O)cn(C4CC4)c3c1N2` gave an MIC [2] of 25 µg/mL (≈ 62.7 µM) and an MIC [3] of 6 µg/mL (≈ 15.1 µM).
`Cc1ccc2c(c1)Sc1c(F)cc3c(=O)c(C(=O)O)cn(C4CC4)c3c1N2` showed an MIC [4] of 1.5 µg/mL (≈ 3.92 µM), an MIC [2] of 1.5 µg/mL (≈ 3.92 µM) and an MIC [5] of 1.5 µg/mL (≈ 3.92 µM). The MIC [3] was 1.5 µg/mL (≈ 3.92 µM).
For `COc1ccc2c(c1)c1c(c3nc4ccccc4c(=O)n32)Sc2cccc(OC)c2N1`, the inhibition [6] was 45.6 to 47.3%, the Activity [7] was 6.8 nM and the Activity [8] was 4.5 to 4.6 nM.
Work on `C[n+]1cc2c(c3ccccc31)Nc1ccc(Cl)cc1S2.[Cl-]` yielded an MIC [4] of 6 µg/mL and an MIC [9] of 4 µg/mL.
`Cc1ccc(S(=O)(=O)NCCN2c3nc4ccccc4cc3Sc3cc4ccccc4nc32)cc1` showed an IC50 [10] of 1700 nM, an IC50 [11] of 1700 nM and an IC50 [12] of 480 nM.
In the case of `CN(C)CCCN1c2ccccc2Sc2cccnc21` [PROTHIPENDYL], the IC50 [13] is reported as 32.3 µg/mL (≈ 113 µM), the IC50 [14] is reported as ≥ 23 µg/mL and the IC50 [15] is reported as ≥ 23 µg/mL. For the same compound, the IC50 [16] was ≥ 23 µg/mL and the IC50 [17] was ≥ 23 µg/mL.
Work on `C[n+]1cc2c(c3ccccc31)Nc1ccc(Br)cc1S2.[Cl-]` yielded an MIC [18] of 26 µg/mL and an MIC [9] of 9 µg/mL.
Work on `CN1CCCCC1CCN1c2nc3ccccc3cc2Sc2cc3ccccc3nc21` (configuration not stated) yielded an inhibition [19] of 99.8% and an IC50 [20] of 11.8 nM.
Work on `CCOCn1c(=O)[nH]c2c(c1=O)Nc1ccc(Cl)cc1S2` yielded an IC50 [21] of 4300 nM.
For `O=C(O)CC1C2CCCC1CN(Cc1ccc3c(c1)Nc1nccnc1S3)C2` (stereo in doubt; 64c), the IC50 [22] was 3000 nM, the inhibition in vivo at 10 mg/kg [23] was 91.5% and the IC50 [24] was 2500 nM. The bioavailability [25] was 98.5%.
With `CCN(CC)CCN1c2nc3ccccc3cc2Sc2cc3ccccc3nc21` the IC50 [26] was ≤ 1000 nM and the IC50 [27] was ≤ 1000 nM.
In the case of `CN1c2ccc(O)c(Cl)c2Sc2nccnc21`, the IC50 [28] is reported as 0.05 to 1 µg/mL (≈ 0.188 to 3.76 µM), the inhibition in vivo at 3 mg/kg [29] is reported as 43% and the inhibition in vivo at 5 mg/kg [30] is reported as 47%.
For `O=C1C(Cl)=C2Sc3cccnc3NC2c2ccccc21` (configuration not stated), the inhibition [1] was < 100% and the “inhibition (INH)” value [31] was 77.9%.
Compound `Clc1ccc(N2c3nc4ccccc4cc3Sc3cc4ccccc4nc32)cc1` has an inhibition of growth at 10 µM [32] of 63% and an inhibition of growth at 10 µM [33] of 57 to 73%.
For `CN1CCN(c2ncc3c(n2)Sc2ccccc2N3)CC1`, the IC50 [34] was 87700 nM.
For `Oc1ncnc2c1N=c1c(c3c(c4ccccc14)=Nc1ccccc1S3)O2`, the MIC [4] was 87.1 to 97.1 µg/mL (≈ 235 to 262 µM), the MIC [5] was 66.1 µg/mL (≈ 178 µM) and the MIC [35] was 79.4 µg/mL (≈ 214 µM).
With `O=C(O)c1cn(C2CC2)c2c3c(c(F)cc2c1=O)Sc1cc(Cl)ccc1N3` the MIC [2] was ≥ 100 µg/mL.
In the case of `O=C1O[C@H]([C@@H](O)CO)C(O)=C1O` [ASCORBIC ACID], the “inhibition (INH)” value [31] is reported as 71.9%.
`O=C(NCCCl)NCCCN1c2nc3ccccc3cc2Sc2cc3ccccc3nc21` showed an inhibition [19] of 83.2% and an IC50 [20] of 2900 nM.
In the case of `COc1ccc2c(n1)Sc1c3c(c4ccccc4c1=N2)=Nc1ccc(OC)nc1S3`, the MIC [4] is reported as 144 µg/mL (≈ 336 µM) and the MIC [36] is reported as 72.4 µg/mL (≈ 168 µM).
`Cn1c(=O)[nH]c2c(c1=O)Nc1ccccc1S2` gave an IC50 [37] of 1900 nM.
For `C[n+]1cc2c(c3ccccc31)Nc1ccccc1S2.[Cl-]`, the MIC [4] was 7 µg/mL and the MIC [9] was 6 µg/mL.
With `CCN(CC)CCN1c2cccnc2Sc2cccnc21` the IC50 [15] was 6.6 µg/mL (≈ 22 µM) and the IC50 [17] was ≥ 50 µg/mL.
Work on `COc1cccc2c1Nc1c(c3nc4ccccc4c(=O)n3c3c(OC)cccc13)S2` yielded an inhibition [6] of 45.6 to 47.3%, an Activity [7] of 6.8 nM and an Activity [8] of 4.5 to 4.6 nM.
`Cc1nc(N2CCN(C)CC2)nc2c1Nc1ccccc1S2` gave an IC50 [34] of 21200 nM.

Source: ChEMBL document CHEMBL4138122, “Azaphenothiazines - promising phenothiazine derivatives. An insight into nomenclature, synthesis, structure elucidation and biological properties” (Eur J Med Chem, 2017)
